Entries after “also recorded” stand apart in the source; their conditions may differ.
Experiments:
[1] = biological target: T1, PPARγ LBD (Homo sapiens, UniProt P37231); assay: In vitro co-purification with His-tagged PPARγ LBD, MS; assay type: binding; conditions: incubated with 10 μM idebenone
T1 construct: His-tagged PPARα, δ and γ LBDs were expressed in bacteria, Ni-NTA purified; His; made in house; host or cells: bacteria (E. coli)
T1 sequence (P37231 238-503 limits assumed): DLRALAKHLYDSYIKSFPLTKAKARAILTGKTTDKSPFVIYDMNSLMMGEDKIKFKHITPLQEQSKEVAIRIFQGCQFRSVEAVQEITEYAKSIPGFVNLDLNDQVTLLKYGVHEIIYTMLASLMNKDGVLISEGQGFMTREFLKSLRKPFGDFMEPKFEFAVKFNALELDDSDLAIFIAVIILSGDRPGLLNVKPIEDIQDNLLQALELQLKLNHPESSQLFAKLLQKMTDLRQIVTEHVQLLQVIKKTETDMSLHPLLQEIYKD
Procedure: To see if idebenone can bind to directly to other PPAR LBDs, His-tagged PPARα, δ and γ LBDs were expressed in bacteria, Ni-NTA purified and incubated with 10 μM idebenone. After several washes in a 10 kDa cut off Amicon centrifuge filter (Millipore), lipids were extracted and analyzed by MS.

[2] = biological target: T2, hPPARγ (Homo sapiens, UniProt P37231); assay: HEK293 cell culture luciferase reporter assay, hPPARγ
T2 sequence (P37231 188-477 isoform P37231-2): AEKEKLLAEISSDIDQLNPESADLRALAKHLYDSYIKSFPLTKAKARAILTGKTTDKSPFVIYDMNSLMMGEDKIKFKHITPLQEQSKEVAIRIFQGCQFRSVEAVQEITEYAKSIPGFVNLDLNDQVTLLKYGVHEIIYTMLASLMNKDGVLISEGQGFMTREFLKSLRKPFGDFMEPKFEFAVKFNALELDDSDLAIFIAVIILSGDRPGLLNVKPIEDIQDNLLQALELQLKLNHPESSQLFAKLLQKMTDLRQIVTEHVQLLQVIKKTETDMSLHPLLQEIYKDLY

[3] = biological target: T3, PPARδ/β (Homo sapiens, UniProt Q03181); assay: PPARδ/β ligand trap transgenic zebrafish line; conditions: in vivo
T3 construct: expressed in transfected cells; host or cells: transgenic zebrafish embryos (ligand-trap line)
T3 sequence (Q03181 211-439 limits assumed): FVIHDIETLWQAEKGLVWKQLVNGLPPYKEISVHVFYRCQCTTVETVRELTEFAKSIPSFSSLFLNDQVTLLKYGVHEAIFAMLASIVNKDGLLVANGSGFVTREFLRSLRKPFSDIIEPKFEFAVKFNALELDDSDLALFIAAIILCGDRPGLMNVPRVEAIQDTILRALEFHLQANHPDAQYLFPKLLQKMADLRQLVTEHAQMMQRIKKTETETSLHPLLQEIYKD
Procedure: To test for specificity, idebenone and CoQ10 were also tested on PPARα, and PPARδ/β receptors in vivo and in vitro. […] The same relative responses were obtained with HEK 293 cells grown in culture and transfected with PPAR expression vectors and luciferase reporters (FIG. 5).

[4] = biological target: T4, affinity-tagged PPARγ expressed in zebrafish (Homo sapiens, UniProt P37231); assay: Affinity purification of PPARγ from LT fish and LC-MRM of bound drugs; assay type: binding; conditions: 1 μM rosiglitazone or 4 μM idebenone; purification in 1M NaCl
T4 construct: pLT PPARα (aa 178-468) and pLT PPAR γ (aa 188-477) lines; expressed in transfected cells; host or cells: transgenic zebrafish embryos (heat-induced ligand-trap line)
T4 sequence (P37231 188-477 isoform P37231-2): T2 sequence (P37231 188-477 isoform P37231-2)

[5] = biological target: T2, hPPARγ; assay: PPARγ ligand trap (LT) zebrafish GFP reporter screen/assay; assay type: in vivo; parameters: pLT PPARα (aa 178-468) and pLT PPAR γ (aa 188-477) lines; expressed in transfected cells; host or cells: transgenic zebrafish embryos (heat-induced ligand-trap line); conditions: for GFP reporter activation in LT-PPARγ embryos: transgenic embryos, 48 hpf images
Procedure: Digested DNA was adjusted with 0.1% phenol red. 4.6 nl of DNA solution was injected into the blastomeres of early one-cell stage embryos.
F0 fish were crossed with WT fish to identify germ-line transformed animals, as determined by agonist treatments and GFP expression. F1 progeny showing strong and consistent GFP responses were selected for F2 homozygote production. To avoid reporter GFP silencing of stable transgenic LT lines, homozygous fish showing strong and consistent GFP responses were selected for continued propagation of next generations.
PPARγ ligand trap zebrafish screens were performed under optimized conditions in 96-well format using the ImageXpress Velos Laser Scanning Cytometer. 1 or 2 dpf embryos were heat induced (28→37° C.) for 30 minutes, de-chorionated and then arrayed in 96-well plates (5 per well). Embryo water (0.075 g/L NaHCO3, 0.018 g/L Sea salt, 0.0084 g/L CaSO42H2O) was removed and 200 μl of fresh embryo water/well including dissolved small molecules or solvent was added.
Also included was the CoQ10 analog idebenone.

[6] = biological target: T5, hPPARδ/β (Homo sapiens, UniProt Q03181); assay: HEK293 cell culture luciferase reporter assay, hPPARδ/β; conditions: HEK293
T5 sequence (Q03181 143-441): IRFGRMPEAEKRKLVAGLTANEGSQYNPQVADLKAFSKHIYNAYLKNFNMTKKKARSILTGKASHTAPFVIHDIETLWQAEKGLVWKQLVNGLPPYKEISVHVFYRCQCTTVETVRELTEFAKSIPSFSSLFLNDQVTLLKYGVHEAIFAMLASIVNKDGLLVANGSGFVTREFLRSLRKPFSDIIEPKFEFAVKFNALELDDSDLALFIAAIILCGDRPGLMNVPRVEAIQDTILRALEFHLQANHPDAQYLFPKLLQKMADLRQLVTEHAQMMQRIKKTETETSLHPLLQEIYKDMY

- Binding to PPARγ LBD (co-purification, MS) [1]: strong binding
- EC50 [2]: 2500 nM
- Response of PPARδ/β transgenic line [3]: no response
- Hit activating the PPARγ ligand trap reporter fish line ([5]; Enzo FDA approved drug library, screened at 1, 3 and 10 μM): hits
- Concentration yielding maximal activation in fish reporter system ([5]; in vivo): ≥ 4 µM
- EC50 ([5]; zebrafish ligand trap, read-out: EC50 in fish): 2000 nM
- Response of PPARδ/β in cultured cells [6]: no response
Structure (SMILES): COC1=C(OC)C(=O)C(CCCCCCCCCCO)=C(C)C1=O [Idebenone, 2-(10-hydroxydecyl)-5,6-dimethoxy-3-methyl-2,5-cyclohexadiene-1,4-dione]
- Maximum activation level versus full agonist, PPARγ ([2]; HEK293, full agonist rosiglitazone): significantly lower than those obtained using the full agonists
- Co-purification with PPARγ from LT fish (LC-MRM) [4]: yielded idebenone in the affinity purification eluate; also recorded: co-purify with affinity-tagged PPARγ
- GFP reporter activation in LT-PPARγ embryos [5]: more limited GFP expression in cells of the blood, epidermis and CNS
- GFP reporter activation in LT-PPARγ embryos ([5]; listed as idebenone): weaker and less widespread than responses to rosiglitazone or pioglitazone; also recorded: dual agonists for PPARα and PPARγ

Source: US9770421B2, “Uses for idebenone and related benzoquinones in metabolic disorders and other PPAR α/γ related diseases and conditions” (INDANIO BIOSCIENCE INC., priority 2013, dated 2017)
